For one series, the system named is SIN3A 3′UTR. Briefly: Dual-luciferase reporter assay (psiCHECK-2 vector with SIN3A 3′UTR) in HEK293T cells. It is filed as cell-based. As to conditions: HEK293T cells co-transfected with psiCHECK-2 and increasing concentrations of mimic; vs Scr. From the text:
FIG. 5: miR-138 regulates SIN3A in a dose-dependent and site-specific manner. HEK293T cells were co-transfected with the psiCHECK-2 vector (containing the SIN3A 3′UTR) and increasing concentrations of Scr or miR-138 mimic (Scr: non-targeting control oligonucleotide). To test site-specificity, the two predicted binding sites of miR-138 on SIN3A 3′UTR cloned in the psiCHECK-2 vector were mutated and the experiment repeated. Error bars indicate mean±SE; (n=4, 3 replicates each); *P<0.01, relative to Scr.
The 3′UTR of SIN3A was cloned into the Xho1/Not1 restriction enzyme sites in the 3′UTR of Renilla luciferase in the psiCHECK™-2 vector (Promega). HEK293T cells were cotransfected with 20 ng of psiCHECK-2 vector and different concentrations of miR-138 mimic. The Lipofectamine™ RNAiMAX (Invitrogen) reverse transfection protocol was used as described above. The miR-138 binding sites on the SIN3A 3′UTR were mutated using the site-directed, ligase-independent mutagenesis (SLIM) protocol (Chiu, J., Tillett, D., Dawes, I. W. & March, P. E. Site-directed, Ligase-Independent Mutagenesis (SLIM) for highly efficient mutagenesis of plasmids greater than 8 kb. J Microbiol. Methods 73, 195-198 (2008); Chiu, J., March, P. E., Lee, R. & Tillett, D. Site-directed, Ligase-Independent Mutagenesis (SLIM): a single-tube methodology approaching 100% efficiency in 4 h. Nucleic Acids Res. 32, (2004)). […]
On the technique in general: In a reporter assay the amount or activity of a reporter protein is the signal.

The test system of another series is SIN3A. The series can be described thus: SIN3A mRNA (RT-qPCR) and protein (immunoblot) in primary human airway epithelia. The class given is cell-based. As to conditions: polarized primary human airway epithelia; mRNA 24 hrs, protein 72 hrs post-transfection. The procedure: Airway epithelia from human trachea and primary bronchus removed from organs donated for research were cultured at the air-liquid interface (ALI) (Karp, P. H. et al. An in vitro model of differentiated human airway epithelia. Methods for establishing primary cultures. Methods Mol. Biol. 188, 115-137 (2002)). These studies were approved by the Institutional Review Board of the University of Iowa. Briefly, airway epithelial cells were dissociated from native tissue by pronase enzyme digestion. Permeable membrane inserts (0.6 cm^2 Millipore-PCF, 0.33 cm^2 Costar-Polyester) pre-coated with human placental collagen (IV, Sigma) were seeded with freshly dissociated epithelia. […]
First-strand cDNA was synthesized using SuperScript® II (Invitrogen), and oligo-dT and random-hexamer primers. […] To quantitate miRNAs, TaqMan® microRNA Assays (Applied Biosystems) were obtained for miR-138, RNU48 (control) and 8 other miRNAs (negative control, miRs-21, -24, -26a, -200c, -146a, -146b, -27a*, -134). […] All experiments were performed in quadruplicate. mRNA and miRNA quantification in cell lines represents 8 independent transfections in 4 separate experiments. mRNA quantification in human primary airway epithelial cultures represent 8 independent transfections in 8 non-CF donors and 4 CF donors. […]
(Real-time PCR tracks product formation cycle by cycle.)

For “miR-138 mimic: synthetic modified RNA duplex, sense SEQ ID NO: 4, antisense SEQ ID NO: 5, showing miR-138-like activity”, the “SIN3A expression (Renilla luciferase with SIN3A 3′UTR, normalized to firefly luciferase)” value in the series on SIN3A 3′UTR was “repressed SIN3A expression in a dose-dependent manner”. The “SIN3A mRNA and protein levels” value with SIN3A is recorded as “reduced”.
